Each structure is given as a SMILES string.

As usually defined, the melting point is the temperature of the solid-liquid transition.

On to `Cc1ccc(N(C)S(=O)(=O)c2cccs2)c2[nH]c(-c3ncc(CN4CCC(O)C4)s3)cc12` (centres unmarked) [Example 251, N-(2-{5-[(3-hydroxypyrrolidin-1-yl)methyl]-1,3-thiazol-2-yl}-4-methyl-1H-indol-7-yl)-N-methylthiophene-2-sulfonamide], for which the melting point was in the range of 190 to 191 °C.

Compound `CCOC(=O)CC1CN=C(c2cc3cccc(N(C)S(=O)(=O)c4cccs4)c3[nH]2)S1` (centres unmarked) [Example 283, ethyl (2-{7-[methyl(2-thienylsulfonyl)amino]-1H-indol-2-yl}-4,5-dihydro-1,3-thiazol-5-yl)acetate] had a melting point of 101 to 102 °C.

Compound `CN(c1cccc2cc(C3=NCC(CC(=O)O)S3)[nH]c12)S(=O)(=O)c1cccs1` (centres unmarked) [Example 284, (2-{7-[methyl(2-thienylsulfonyl)amino]-1H-indol-2-yl}-4,5-dihydro-1,3-thiazol-5-yl)acetic acid] had a melting point of 232 to 234 °C.

`CN(c1cccc2cc(C3=NCC(CCO)S3)[nH]c12)S(=O)(=O)c1cccs1` (centres unmarked) [Example 285, N-{2-[5-(2-hydroxyethyl)-4,5-dihydro-1,3-thiazol-2-yl]-1H-indol-7-yl}-N-methylthiophene-2-sulfonamide] registered a melting point of 174 to 175 °C.

Compound `CN1CCN(C(=O)CC2CN=C(c3cc4cccc(N(C)S(=O)(=O)c5cccs5)c4[nH]3)S2)CC1` (centres unmarked) [Example 286, N-methyl-N-(2-{5-[2-(4-methylpiperazin-1-yl)-2-oxoethyl]-4,5-dihydro-1,3-thiazol-2-yl}-1H-indol-7-yl)thiophene-2-sulfonamide] gave a melting point of 151 to 153 °C.

Compound `CN(c1cccc2cc(C3=NCC(CC(N)=O)S3)[nH]c12)S(=O)(=O)c1cccs1` (centres unmarked) [Example 287, 2-(2-{7-[methyl(2-thienylsulfonyl)amino]-1H-indol-2-yl}-4,5-dihydro-1,3-thiazol-5-yl)acetamide] had a melting point of 193 to 194 °C.

Take `CN(c1cccc2cc(C3=NCC(CCN4C(=O)CCC4=O)S3)[nH]c12)S(=O)(=O)c1cccs1` (centres unmarked) [Example 288, N-(2-{5-[2-(2,5-dioxopyrrolidin-1-yl)ethyl]-4,5-dihydro-1,3-thiazol-2-yl}-1H-indol-7-yl)-N-methylthiophene-2-sulfonamide]: the melting point lay within 189 to 191 °C.

Take `CCOC(=O)CC1CN=C(c2cc3c(C)ccc(N(C)S(=O)(=O)c4cccs4)c3[nH]2)S1` (centres unmarked) [Example 290, ethyl (2-{4-methyl-7-[methyl(2-thienylsulfonyl)amino]-1H-indol-2-yl}-4,5-dihydro-1,3-thiazol-5-yl)acetate]: the melting point was in the range of 109 to 110 °C.

For `Cc1ccc(N(C)S(=O)(=O)c2cccs2)c2[nH]c(C3=NCC(CCO)S3)cc12` (centres unmarked) [Example 291, N-{2-[5-(2-hydroxyethyl)-4,5-dihydro-1,3-thiazol-2-yl]-4-methyl-1H-indol-7-yl}-N-methylthiophene-2-sulfonamide], the melting point lay within 168 to 169 °C.

With `Cc1ccc(N(C)S(=O)(=O)c2cccs2)c2[nH]c(C3=NCC(CC(=O)O)S3)cc12` (centres unmarked) [Example 292, (2-{4-methyl-7-[methyl(2-thienylsulfonyl)amino]-1H-indol-2-yl}-4,5-dihydro-1,3-thiazol-5-yl)acetic acid], the melting point lay in the range of 269 to 270 °C.

The compound `Cc1ccc(N(C)S(=O)(=O)c2cccs2)c2[nH]c(C3=NCC(CC(N)=O)S3)cc12` (centres unmarked) [Example 293, 2-(2-{4-methyl-7-[methyl(2-thienylsulfonyl)amino]-1H-indol-2-yl}-4,5-dihydro-1,3-thiazol-5-yl)acetamide] gave a melting point of 120 to 121 °C.

On to `CN(C)C(=O)CC1CN=C(c2cc3cccc(N(C)S(=O)(=O)c4cccs4)c3[nH]2)S1` (centres unmarked) [Example 294, N,N-dimethyl-2-(2-{7-[methyl(2-thienylsulfonyl)amino]-1H-indol-2-yl}-4,5-dihydro-1,3-thiazol-5-yl)acetamide], for which the melting point lay in the range of 153 to 154 °C.

With `O=S(=O)(Nc1cccc2cc(C3=NCC(CCO)S3)[nH]c12)c1cccs1` (centres unmarked) [Example 295, N-{2-[5-(2-hydroxyethyl)-4,5-dihydro-1,3-thiazol-2-yl]-1H-indol-7-yl}thiophene-2-sulfonamide], the melting point fell in the range of 156 to 158 °C.

`O=C(O)CC1CN=C(c2cc3cccc(NS(=O)(=O)c4cccs4)c3[nH]2)S1` (centres unmarked) [Example 296, (2-{7-[(2-thienylsulfonyl)amino]-1H-indol-2-yl}-4,5-dihydro-1,3-thiazol-5-yl)acetic acid]: the melting point was > 240 °C (dec.).

Compound `NC(=O)CC1CN=C(c2cc3cccc(NS(=O)(=O)c4cccs4)c3[nH]2)S1` (centres unmarked) [Example 297, 2-(2-{7-[(2-thienylsulfonyl)amino]-1H-indol-2-yl}-4,5-dihydro-1,3-thiazol-5-yl)acetamide] gave a melting point of 130 to 131 °C.

Consider `CON(C)C(=O)CC1CN=C(c2cc3cccc(N(C)S(=O)(=O)c4cccs4)c3[nH]2)S1` (centres unmarked) [Example 299, N-methoxy-N-methyl-2-(2-{7-[methyl(2-thienylsulfonyl)amino]-1H-indol-2-yl}-4,5-dihydro-1,3-thiazol-5-yl)acetamide], for which the melting point was 153 to 154 °C.

In the case of `CC(=O)CC1CN=C(c2cc3cccc(N(C)S(=O)(=O)c4cccs4)c3[nH]2)S1` (centres unmarked) [Example 300, N-methyl-N-{2-[5-(2-oxopropyl)-4,5-dihydro-1,3-thiazol-2-yl]-1H-indol-7-yl}thiophene-2-sulfonamide], the melting point lay within 123 to 124 °C.

Consider `C=CC(=O)CC1CN=C(c2cc3cccc(N(C)S(=O)(=O)c4cccs4)c3[nH]2)S1` (centres unmarked) [Example 301, N-methyl-N-{2-[5-(2-oxobut-3-en-1-yl)-4,5-dihydro-1,3-thiazol-2-yl]-1H-indol-7-yl}thiophene-2-sulfonamide], for which the melting point was in the range of 157 to 158 °C.

`CN1CCC(CC2CN=C(c3cc4cccc(N(C)S(=O)(=O)c5cccs5)c4[nH]3)S2)=N1` (centres unmarked) [Example 302, N-methyl-N-(2-{5-[(1-methyl-4,5-dihydro-1H-pyrazol-3-yl)methyl]-4,5-dihydro-1,3-thiazol-2-yl}-1H-indol-7-yl)thiophene-2-sulfonamide]: the melting point was 149 to 150 °C.

Consider `CN(c1cccc2cc(C3=NCC(CN4CCSCC4)S3)[nH]c12)S(=O)(=O)c1ccccn1` (centres unmarked) [Example 303, N-methyl-N-{2-[5-(thiomorpholinomethyl)-4,5-dihydro-1,3-thiazol-2-yl]-1H-indol-7-yl}pyridine-2-sulfonamide], for which the melting point was in the range of 142 to 144 °C.

With `CN(c1cccc2cc(C3=NCC(CN4CC[S+]([O-])CC4)S3)[nH]c12)S(=O)(=O)c1ccccn1` (centres unmarked) [Example 304, N-methyl-N-(2-{5-[(1-oxidothiomorpholino)methyl]-4,5-dihydro-1,3-thiazol-2-yl}-1H-indol-7-yl)pyridine-2-sulfonamide], the melting point lay in the range of 193 to 194 °C.

The compound `COc1ccccc1S(=O)(=O)N(C)c1cccc2cc(C3=NCC(CCO)S3)[nH]c12` (centres unmarked) [Example 306, N-{2-[5-(2-hydroxyethyl)-4,5-dihydro-1,3-thiazol-2-yl]-1H-indol-7-yl}-2-methoxy-N-methylbenzenesulfonamide] displayed a melting point of 154 to 155 °C.

The compound `COc1ccccc1S(=O)(=O)N(C)c1cccc2cc(C3=NCC(CC(=O)O)S3)[nH]c12` (centres unmarked) [Example 307, (2-{7-[[(2-methoxyphenyl)sulfonyl](methyl)amino]-1H-indol-2-yl}-4,5-dihydro-1,3-thiazol-5-yl)acetic acid] came in with a melting point of 197 to 198 °C.

The values are drawn from US7777047B2, “Indole compound” (Takeda Pharmaceutical Company Limited, priority 2006, dated 2010).
